What was measured:
K562 = experiment: Antiproliferative activity against human K562 cells assessed as reduction in cell viability incubated for 72 hrs by MTT assay; type: functional, cell-based; settings: K562, 72 h
MCF7 = experiment: Antiproliferative activity against human MCF7 cells assessed as reduction in cell viability incubated for 72 hrs by MTT assay; type: functional, cell-based; settings: MCF7, 72 h
MDA-MB-231 = experiment: Antiproliferative activity against human MDA-MB-231 cells assessed as reduction in cell viability incubated for 72 hrs by MTT assay; type: functional, cell-based; settings: MDA-MB-231, 72 h
SMMC-7721 = experiment: Antiproliferative activity against human […] cells assessed as reduction in cell viability incubated for 72 hrs by MTT assay; type: functional, cell-based; settings: SMMC-7721, 72 h
SW480 = experiment: Antiproliferative activity against human SW480 cells assessed as reduction in cell viability incubated for 72 hrs by MTT assay; type: functional, cell-based; settings: SW480, 72 h
[1] = Selectivity index, ratio of IC50 for human L02 cells to IC50 for human SMMC-7721 cells; type: toxicity; settings: L02 cells and SMMC-7721 cells, read-out: Ratio IC50
[2] = Antiproliferative activity against human U-87 MG cells assessed as reduction in cell viability incubated for 72 hrs by MTT assay; type: functional, cell-based, U-87MG ATCC
HeLa = experiment: Antiproliferative activity against human HeLa cells assessed as reduction in cell viability incubated for 72 hrs by MTT assay; type: functional, cell-based
MGC-803 = experiment: Antiproliferative activity against human MGC-803 cells assessed as reduction in cell viability incubated for 72 hrs by MTT assay; type: functional, cell-based; settings: MGC-803, 72 h
[3] = Cytotoxicity against human L02 cells assessed as reduction in cell viability incubated for 72 hrs by MTT assay; type: toxicity, cell-based
H22 = experiment: Antiproliferative activity against mouse H22 cells assessed as reduction in cell viability incubated for 72 hrs by MTT assay; type: functional, cell-based; settings: H22, 72 h

Row | SMILES | IC50 (K562) | other results
1 | C=C1C(=O)[C@@]23C(CC[C@@H]1[C@H]2OC(=O)c1ccc(F)cc1)[C@]12CCCC(C)(C)C1[C@H](O)[C@@]3(O)OC2 (stereo partly drawn) | 4630 nM | –
2 | C=C1C(=O)[C@]23[C@H](O)[C@H]1CC[C@H]2[C@]12C=CCC(C)(C)[C@H]1[C@H](O)[C@@]3(O)OC2 | 2040 nM | IC50 (MCF7): 3500 nM; IC50 (MDA-MB-231): 1880 nM; IC50 (SMMC-7721): 3760 nM
3 | C=C1C(=O)[C@]23[C@H](OC(=O)/C=C/c4ccc[nH]4)[C@H]1CC[C@H]2[C@]12C=CCC(C)(C)[C@H]1[C@H](O)[C@@]3(O)OC2 | 1510 nM | –
4 | C=C1C(=O)[C@]23[C@H](OC(=O)C4CCCCC4)[C@H]1CC[C@H]2[C@]12CCCC(C)(C)[C@H]1[C@H](O)[C@@]3(O)OC2 | 4050 nM | –
5 | C=C1C(=O)[C@]23[C@H](OC(=O)c4ccccc4C)[C@H]1CC[C@H]2[C@]12CCCC(C)(C)[C@H]1[C@H](O)[C@@]3(O)OC2 | 3290 nM | –
6 | C=C1C(=O)[C@]23[C@H](OC(=O)/C=C/C)[C@H]1CC[C@H]2[C@]12CCCC(C)(C)[C@H]1[C@H](O)[C@@]3(O)OC2 | 390 nM | –
7 | C=C1C(=O)[C@]23[C@H](OC(=O)/C=C/c4ccco4)[C@H]1CC[C@H]2[C@]12CCCC(C)(C)[C@H]1C[C@@]3(O)OC2 | 1440 nM | –
8 | C=C1C(=O)[C@]23[C@H](O)[C@H]1CC[C@H]2[C@]12CCCC(C)(C)[C@H]1[C@H](O)[C@@]3(O)OC2 | 1230 nM | IC50 (MCF7): 2800 nM; IC50 (MDA-MB-231): 2040 nM; IC50 (SMMC-7721): 3140 nM
9 | C=C1C(=O)[C@]23[C@H](OC(=O)/C=C/c4ccccc4)[C@H]1CC[C@H]2[C@]12CCCC(C)(C)[C@H]1[C@H](O)[C@@]3(O)OC2 | 1760 nM | –
10 | C=C1C(=O)[C@]23[C@H](OC(=O)C=C(C)C)[C@H]1CC[C@H]2[C@]12CCCC(C)(C)[C@H]1[C@H](O)[C@@]3(O)OC2 | 900 nM | –
11 | C=C1C(=O)[C@]23[C@H](OC(=O)/C=C/c4ccnc(F)c4)[C@H]1CC[C@H]2[C@]12CCCC(C)(C)[C@H]1C[C@@]3(O)OC2 | 900 nM | –
12 | C=C1C(=O)[C@]23[C@H](OC(=O)/C=C/c4cccc5c4OCO5)[C@H]1CC[C@H]2[C@]12C=CCC(C)(C)[C@H]1[C@H](O)[C@@]3(O)OC2 | 2800 nM | –
13 | C=C1C(=O)[C@]23[C@H](O)[C@H]1CC[C@H]2[C@@]12CO[C@]3(O)[C@@H](O)[C@@H]1C(C)(C)CC[C@@H]2O [ORIDONIN] | – | IC50 (SW480): 11600 nM; selectivity ratio [1]: 2.73; IC50 (MCF7): 11100 nM; IC50 (MDA-MB-231): 11600 nM; IC50 [2]: 14000 nM; IC50 (HeLa): 17300 nM; IC50 (MGC-803): 15100 nM; IC50 at 72 h [3]: 34300 nM; IC50 (H22): 4880 nM; IC50 (SMMC-7721): 12600 nM
14 | C=C1C(=O)[C@]23[C@H](OC(=O)c4ccc(C)cc4)[C@H]1CC[C@H]2[C@]12CCCC(C)(C)[C@H]1C[C@@]3(O)OC2 | 5460 nM | –
15 | C=C1C(=O)[C@]23[C@H](OC(=O)/C=C/c4cccnc4)[C@H]1CC[C@H]2[C@]12CCCC(C)(C)[C@H]1C[C@@]3(O)OC2 | 560 nM | –
16 | C=C1C(=O)[C@]23[C@H](OC(=O)c4ccc(Br)cc4)[C@H]1CC[C@H]2[C@]12CCCC(C)(C)[C@H]1[C@H](O)[C@@]3(O)OC2 | 4380 nM | –
17 | C=C1C(=O)[C@]23[C@H](OC(=O)/C=C(\C)c4ccccc4)[C@H]1CC[C@H]2[C@]12CCCC(C)(C)[C@H]1[C@H](O)[C@@]3(O)OC2 | 5320 nM | –
18 | C=C1C(=O)[C@]23[C@H](OC(=O)/C=C/c4cncnc4)[C@H]1CC[C@H]2[C@]12C=CCC(C)(C)[C@H]1[C@H](O)[C@@]3(O)OC2 | 460 nM | –
19 | C=C1C(=O)[C@]23[C@H](OC(=O)CCCc4ccccc4)[C@H]1CC[C@H]2[C@]12C=CCC(C)(C)[C@H]1[C@H](O)[C@@]3(O)OC2 | 3640 nM | –
20 | C=C1C(=O)[C@]23[C@H](OC(=O)c4cccc(C)c4)[C@H]1CC[C@H]2[C@]12CCCC(C)(C)[C@H]1[C@H](O)[C@@]3(O)OC2 | 2830 nM | –

Now from value to compound, other results behind:

Row | IC50 (K562) | SMILES | other results
21 | 800 nM | C=C1C(=O)[C@]23[C@H](OC(=O)/C=C/c4ccsc4)[C@H]1CC[C@H]2[C@]12CCCC(C)(C)[C@H]1C[C@@]3(O)OC2 | –
22 | 1200 nM | C=C1C(=O)[C@]23[C@H](OC(C)=O)[C@H]1CC[C@H]2[C@]12CCCC(C)(C)[C@H]1C[C@@]3(O)OC2 | –
23 | 2740 nM | C=C1C(=O)[C@]23[C@H](OC(=O)/C=C/c4ccccc4)[C@H]1CC[C@H]2[C@]12CCCC(C)(C)[C@H]1C[C@@]3(O)OC2 | –
24 | 1030 nM | C=C1C(=O)[C@@]23C(=O)[C@@H](OC(C)=O)[C@@H]4C(C)(C)CCC[C@@]4(COC(C)=O)[C@@H]2CC[C@@H]1[C@H]3OC(C)=O | IC50 (MCF7): 2060 nM; IC50 (MDA-MB-231): 1590 nM; IC50 (SMMC-7721): 2270 nM
25 | 2880 nM | C=C1C(=O)[C@]23[C@H](OC(=O)/C=C/c4ccc5ccccc5c4)[C@H]1CC[C@H]2[C@]12C=CCC(C)(C)[C@H]1[C@H](O)[C@@]3(O)OC2 | –
26 | 1600 nM | C=C1C(=O)[C@]23[C@H](OC(=O)/C=C/c4ccccn4)[C@H]1CC[C@H]2[C@]12C=CCC(C)(C)[C@H]1[C@H](O)[C@@]3(O)OC2 | –
27 | 1670 nM | C=C1C(=O)[C@@]23C(=O)[C@@H](OC(C)=O)[C@@H]4C(C)(C)CC=C[C@@]4(COC(C)=O)[C@@H]2CC[C@@H]1[C@H]3OC(C)=O | IC50 (MCF7): 3570 nM; IC50 (MDA-MB-231): 3140 nM; IC50 (SMMC-7721): 2920 nM
28 | 2740 nM | C=C1C(=O)[C@]23[C@H](OC(=O)CCc4ccccc4)[C@H]1CC[C@H]2[C@]12C=CCC(C)(C)[C@H]1[C@H](O)[C@@]3(O)OC2 | –
29 | 1520 nM | C=C1C(=O)[C@]23[C@H](OC(=O)/C=C/c4ccc(OC)nc4)[C@H]1CC[C@H]2[C@]12C=CCC(C)(C)[C@H]1[C@H](O)[C@@]3(O)OC2 | –
30 | 3700 nM | C=C1C(=O)[C@]23[C@H](OC(=O)/C=C/c4ccc5ccccc5c4)[C@H]1CC[C@H]2[C@]12CCCC(C)(C)[C@H]1[C@H](O)[C@@]3(O)OC2 | –
31 | 540 nM | C=C1C(=O)[C@]23[C@H](OC(=O)/C=C/c4cccnc4)[C@H]1CC[C@H]2[C@]12C=CCC(C)(C)[C@H]1[C@H](O)[C@@]3(O)OC2 | –
32 | 2580 nM | C=C1C(=O)[C@]23[C@H](OC(=O)/C=C/c4cccc5[nH]ccc45)[C@H]1CC[C@H]2[C@]12C=CCC(C)(C)[C@H]1[C@H](O)[C@@]3(O)OC2 | –
33 | 830 nM | C=C1C(=O)[C@]23[C@H](OC(=O)/C=C/c4ccc(F)nc4)[C@H]1CC[C@H]2[C@]12C=CCC(C)(C)[C@H]1[C@H](O)[C@@]3(O)OC2 | –
34 | 3450 nM | C=C1C(=O)[C@]23[C@H](OC(=O)c4ccccc4)[C@H]1CC[C@H]2[C@]12CCCC(C)(C)[C@H]1[C@H](O)[C@@]3(O)OC2 | –
35 | 710 nM | C=C1C(=O)[C@]23[C@H](OC(=O)/C=C/c4ccccc4)[C@H]1CC[C@H]2[C@]12C=CCC(C)(C)[C@H]1[C@H](O)[C@@]3(O)OC2 | –
36 | 1370 nM | C=C1C(=O)[C@]23[C@H](OC(=O)/C=C/c4cccc(Br)n4)[C@H]1CC[C@H]2[C@]12C=CCC(C)(C)[C@H]1[C@H](O)[C@@]3(O)OC2 | –
37 | 1340 nM | C=C1C(=O)[C@]23[C@H](OC(=O)/C=C/c4ccsc4)[C@H]1CC[C@H]2[C@]12C=CCC(C)(C)[C@H]1[C@H](O)[C@@]3(O)OC2 | –
38 | 3010 nM | C=C1C(=O)[C@]23[C@H](OC(=O)c4ccc(C)cc4)[C@H]1CC[C@@]2(C)[C@]12CCCC(C)(C)[C@H]1[C@H](O)[C@@]3(O)OC2 | –
39 | 1980 nM | C=C1C(=O)[C@]23[C@H](O)[C@H]1CC[C@H]2[C@]12CCCC(C)(C)[C@H]1C[C@@]3(O)OC2 | IC50 (MCF7): 2970 nM; IC50 (MDA-MB-231): 2510 nM; IC50 (SMMC-7721): 2960 nM
40 | 5340 nM | C=C1C(=O)[C@]23[C@H](OC(C)=O)[C@H]1CC[C@H]2[C@]12CCCC(C)(C)[C@H]1[C@H](O)[C@@]3(O)OC2 | –
41 | 2900 nM | C=C1C(=O)[C@]23[C@H](OC(=O)/C=C/c4ccc5ccccc5n4)[C@H]1CC[C@H]2[C@]12C=CCC(C)(C)[C@H]1[C@H](O)[C@@]3(O)OC2 | –
42 | 1520 nM | C=C1C(=O)[C@]23[C@H](OC(=O)/C=C/c4ccco4)[C@H]1CC[C@H]2[C@]12C=CCC(C)(C)[C@H]1[C@H](O)[C@@]3(O)OC2 | –
43 | 3090 nM | C=C1C(=O)[C@]23[C@H](OC(=O)/C=C/c4cccnc4Br)[C@H]1CC[C@H]2[C@]12C=CCC(C)(C)[C@H]1[C@H](O)[C@@]3(O)OC2 | –
44 | 1320 nM | C=C1C(=O)[C@]23[C@H](OC(=O)/C=C/c4ccc[nH]4)[C@H]1CC[C@H]2[C@]12CCCC(C)(C)[C@H]1[C@H](O)[C@@]3(O)OC2 | –
